US20180078569A1, “KITS FOR INDENTIFYING AND TREATING SUBJECTS RESISTANT TO ACETYL SALICYLIC ACID” (priority 2006, published 2018)

Tests used:
[1] = target: T1, MRP4-mediated transport (Homo sapiens, UniProt O15439); experiment: ASA concentration in platelet dense granule preparation treated with ASA and ATP; assay type: cell-based
T1 construct: endogenous in cells; host or cells: washed platelets (and a dense-granule suspension made from them) from donors' venous blood
T1 sequence (O15439 1-1325): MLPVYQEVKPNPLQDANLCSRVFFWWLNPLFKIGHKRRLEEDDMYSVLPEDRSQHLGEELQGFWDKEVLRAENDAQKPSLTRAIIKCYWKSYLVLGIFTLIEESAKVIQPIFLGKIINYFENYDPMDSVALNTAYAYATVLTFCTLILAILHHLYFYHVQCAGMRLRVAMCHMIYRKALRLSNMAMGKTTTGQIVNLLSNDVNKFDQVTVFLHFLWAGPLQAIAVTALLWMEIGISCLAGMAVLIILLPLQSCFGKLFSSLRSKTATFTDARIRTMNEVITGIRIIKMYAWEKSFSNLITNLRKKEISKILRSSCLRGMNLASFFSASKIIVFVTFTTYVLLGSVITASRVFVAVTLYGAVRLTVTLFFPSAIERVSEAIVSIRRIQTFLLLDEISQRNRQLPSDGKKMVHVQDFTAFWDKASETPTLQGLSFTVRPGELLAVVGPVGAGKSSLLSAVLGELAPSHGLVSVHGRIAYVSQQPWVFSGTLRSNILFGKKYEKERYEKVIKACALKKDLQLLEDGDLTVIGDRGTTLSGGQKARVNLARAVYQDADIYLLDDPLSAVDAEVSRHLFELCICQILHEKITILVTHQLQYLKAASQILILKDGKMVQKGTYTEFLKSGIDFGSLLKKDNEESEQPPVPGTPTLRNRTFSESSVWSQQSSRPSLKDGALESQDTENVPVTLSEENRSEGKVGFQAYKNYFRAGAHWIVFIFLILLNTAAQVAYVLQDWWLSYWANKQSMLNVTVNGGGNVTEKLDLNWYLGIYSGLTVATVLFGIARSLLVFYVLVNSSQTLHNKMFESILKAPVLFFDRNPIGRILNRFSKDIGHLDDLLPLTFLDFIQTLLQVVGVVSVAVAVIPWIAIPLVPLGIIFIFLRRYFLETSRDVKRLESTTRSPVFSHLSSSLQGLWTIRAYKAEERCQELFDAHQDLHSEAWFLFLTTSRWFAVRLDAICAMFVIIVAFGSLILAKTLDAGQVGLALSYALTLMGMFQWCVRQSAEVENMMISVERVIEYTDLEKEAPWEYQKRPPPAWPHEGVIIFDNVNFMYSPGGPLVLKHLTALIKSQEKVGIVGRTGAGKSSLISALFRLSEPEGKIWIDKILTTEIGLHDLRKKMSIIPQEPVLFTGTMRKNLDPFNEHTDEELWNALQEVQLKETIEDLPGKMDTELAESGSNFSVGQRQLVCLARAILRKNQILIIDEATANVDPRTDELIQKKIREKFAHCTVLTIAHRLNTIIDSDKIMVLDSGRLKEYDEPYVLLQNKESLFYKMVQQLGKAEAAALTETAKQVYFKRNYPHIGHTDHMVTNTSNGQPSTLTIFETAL
Procedure: (§1) 1987, 9, 243-7) and a beta-counter for measuring the radioactive aspirin.
(§2) The PRP was then subjected to platelet count through blood cell count Celltac Auto Nihon Kohden (MEK 8118K). The platelets were then moved away from plasma through centrifugation of PRP, acidified at pH 6.5 with ACD (citric acid, sodium citrate and glucose 1/10 v/v), at 800×g for 10 min. and resuspended in Tyrode's buffer (CaCl2 0.20 g/L, KCl 0.20 g/L, […], NaCl 8.00 g/L, NaH2PO4*H2O), at pH 7.35 and charged with glucose and albumin. The preparation of a dense rich platelet granule suspension was made according to the method reported by (Fukami M H et al. J. Cell. Biol. 1978, 77, 389-99) and the degree of purity was verified through mepacrine Fluorimetric probe and the purity percentage was checked through the cytofluorimeter. If the concentration of the dense granules compared to the other organelles was lower than 80%, the suspension of platelet granules was not used for the study.
In the rich platelet dense granule suspension, ATP and ASA were added to the preparation, then it was kept at 37° C. for 15 min so a to reduce the transpost mediated by MRP4; the suspension was pretreated either with apyrase, an ATP scavenger substance or with Dipyridamole 30 min before adding aspirin, or the treatment with aspirin was made at 4° C.
(§3) The entrapment of aspirin inside platelets or in the dense granules was measured through the method of Gaspari and Locatelli (Ther Drug Monit. 1987, 9, 243-7).

[2] = target: T2, COX-1 (Homo sapiens, UniProt P23219); experiment: Thrombin-induced thromboxane production of aspirinated platelets (TxB2 ELISA); assay type: cell-based; conditions: for thrombin-induced production of thromboxane: aspirinated platelets, with or without inhibitor added prior to ASA; for reduction of thromboxane production: inhibitor added prior to ASA, versus aspirinated platelets not pretreated
T2 construct: prostaglandin H synthase, an enzyme present in platelets and commonly defined as COX-1; endogenous in cells; host or cells: washed platelets from donors' venous blood (healthy volunteers; patients 5 days after aorto-coronary bypass)
Procedure: The resuspended platelets in the Tyrode's buffer at the concentration of 2.5×10^8 cells/ml were treated with aspirin (50 microM) at 10° C. for 15 min and then kept at 37° C. or at 4° C. for 15 min.
MRP4 inhibitors were used such as Dipyridamole and MK571 ((E)-3-[[[3-[2-(7-chloro-2-quinolinyl)ethenyl]phenyl]-[[3-dimethylamino)-3-oxo-propyl]-thio]-methyl]thio]-propanoic acid), both at 100 microM and incubated 30 min at RT before aspirin addition.
(§4) The evaluation of the biologic efficacy of aspirin in platelets was made by studying Thromboxane A2 production, a specific marker of the cyclooxygenase pathway in platelets. Aspirin and/or Dipyridamole treated platelets (see above) were activated with thrombin 1 U/ml for 1 h at 37° C., and then centrifugated 1 min at 8.000 g. Thromboxane B2, a stable metabolite of TXA2, was measured in the supernatant through a commercial ELISA kit (Cayman, chemicals Co).

[3] = target: T2, COX-1; experiment: Thrombin-induced thromboxane production in platelets from bypass patients treated in vitro; assay type: cell-based; conditions: for thromboxane production induced by thrombin: platelets from patients subjected to aorto-coronary bypass, treated in vitro
Procedure: patients at 5 days from an aortic-coronary-bypass.
as §4

[4] = target: T1, MRP4-mediated transport; experiment: Release of 14C-labelled ASA and of ATP from thrombin-activated platelets; assay type: cell-based; conditions: platelets pretreated with dipyridamole
Procedure: Aspirin labelled with 14C (American Radiolabeled Chemicals, Inc. Saint Louis, USA) was added to the platelet suspension for 15 min at 37° C. After removing the excess of the substance marked by double centrifugation, the platelets were activated with Thrombin (0.2 U/ml) and then centrifugated. The reduction of the transport mediated by MRP4 was made through the preincubation of the platelet preparation with Dipyridamole 30 min before aspirin addition. The results are reported by evaluating the percentage of the radioactive present in the supernatant compared to the total radioactivity of the platelet preparation. ATP secretion was analyzed as a control through the luminometric method with commercial kit (Chronolog, Hevertown, Pa., USA).

[5] = target: T1, MRP4-mediated transport; experiment: Cytosolic concentrations of ASA and salicylic acid in platelets incubated with ASA (HPLC); assay type: cell-based; conditions: for cytosolic concentration of acetylsalicylic acid (ASA) / cytosolic concentration of metabolite salicylic acid: platelets pretreated with inhibitor (dipyridamole 100 microM) 10 minutes before ASA 50 microM, compared to platelets treated with solvent alone (DMSO)
From the text: as §1
Dipyridamole, in addition to inhibiting the transport mediated by these channels, is also an inhibitor of platelet activity, in that it increases the platelet concentrations of AMPc, inhibiting phosphodiesterase isoform V (PDE typeV).
as §2
The resuspended platelets in the Tyrode's buffer at the concentration of 2.5×10^8 cells/ml were treated with aspirin (50 microM) at 10° C. for 15 min and then kept at 37° C. or at 4° C. for 15 min. […]
as §3

[6] = system: cardiovascular complications; conditions: daily intake 75-150 mg/day, patients who previously had coronary disease; cited from earlier work
[7] = oral administration; cited from earlier work
[8] = pretreatment before ASA, relative to maximum obtained with ATP in external medium at 37° C.
[9] = treatment of platelets with ASA at 4° C. instead of 37° C.

T2 sequence (P23219 24-599): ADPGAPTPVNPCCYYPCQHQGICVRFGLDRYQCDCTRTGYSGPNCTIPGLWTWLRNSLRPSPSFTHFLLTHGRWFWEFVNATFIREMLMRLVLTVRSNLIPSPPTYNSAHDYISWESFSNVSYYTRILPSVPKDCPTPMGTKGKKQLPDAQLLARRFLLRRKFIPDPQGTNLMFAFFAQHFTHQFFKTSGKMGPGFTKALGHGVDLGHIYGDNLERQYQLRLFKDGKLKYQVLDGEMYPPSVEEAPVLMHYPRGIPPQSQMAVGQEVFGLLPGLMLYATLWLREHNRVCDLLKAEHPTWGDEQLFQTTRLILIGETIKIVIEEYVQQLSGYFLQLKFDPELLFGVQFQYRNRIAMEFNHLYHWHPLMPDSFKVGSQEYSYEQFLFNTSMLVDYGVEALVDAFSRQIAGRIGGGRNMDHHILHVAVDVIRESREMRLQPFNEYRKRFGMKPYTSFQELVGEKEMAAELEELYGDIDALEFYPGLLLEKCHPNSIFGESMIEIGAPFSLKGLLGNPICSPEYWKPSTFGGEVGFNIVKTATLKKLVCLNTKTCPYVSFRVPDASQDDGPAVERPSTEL

apyrase
ASA concentration in platelet granules [1, 8]: 56.1%

OCCN(CCO)c1nc(N2CCCCC2)c2nc(N(CCO)CCO)nc(N3CCCCC3)c2n1 [dipyridamole, 2,6-bis-(diethanolamino)-4,8-dipiperidino-(5,4-d)-pyrimidine]
thrombin-induced production of thromboxane [2]: 142.7 ng/10^8 cells | reduction of thromboxane production [2]: 58% | thromboxane production with respect to platelets treated with aspirin alone ([3]; platelets from bypass patients pretreated in vitro before aspirin): 35% | thromboxane production induced by thrombin [3]: 499.8±247.7 ng/10^8 cells | release of radiolabelled ASA after activation with thrombin ([4]; thrombin 0.2 U/ml): absent | ATP released by the platelets ([4]; thrombin-activated): 1.8 ± 0.3 nmol | cytosolic concentration of acetylsalicylic acid (ASA) [5]: 285% | cytosolic concentration of metabolite salicylic acid [5]: 293% | ASA concentration in platelet granules [1, 8]: 41.7%

CN(C)C(=O)CCSC(SCCC(=O)O)c1cccc(/C=C/c2ccc3ccc(Cl)cc3n2)c1 (centres unmarked) [MK-571]
thrombin-induced production of thromboxane [2]: 140.22 ng/10^8 cells | reduction of thromboxane production [2]: 59.2% | cytosolic concentration of acetylsalicylic acid (ASA) [5]: 208% | cytosolic concentration of metabolite salicylic acid [5]: 202%

Clc1cccc(Nc2nnc(-c3ccccc3)c3ccccc23)c1 [MY-5445, 1-(3-chlorophenylamino)-4-phenylphthalazine]
cytosolic concentration of acetylsalicylic acid (ASA) [5]: 110% | cytosolic concentration of metabolite salicylic acid [5]: 120%

CC(=O)Oc1ccccc1C(=O)O [ASA, acetylsalicylic acid]
thrombin-induced production of thromboxane [2]: 343.7 ng/10^8 cells | reduction of the risk of cardiovascular complications (myocardial infarction, cerebral infarction and vascular death) [6]: 25% | thromboxane production induced by thrombin [3]: 1437.0±549.1 ng/10^8 cells | bioavailability [7]: 40-50% | half-life [7]: 15 to 20 min | plasma concentration peak registered after [7]: 30 to 40 min | platelet inhibition manifested after administration [7]: one | increase of cytosolic concentration of ASA [5, 9]: 240% | increase of cytosolic concentration of salicylate [5, 9]: 160% | ASA concentration in platelet granules ([1]; incubation of ASA at 4° C., relative to maximum obtained with ATP at 37° C.): 53.6%
